For the test, the system named is animal cells, 32Pi/[3H]acetate lipid labeling, 3 h. The test is described as follows: lipid synthesis blockade by radiolabel incorporation – cell-based, 32Pi and [3H]acetate labeling (AID 1347132).

The source made the active and inactive calls.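 The calls were made as follows: active = over 75% inhibition of phospholipid synthesis and over 75% inhibition of fatty acid synthesis; inactive = the rest.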

Results on one molecule are retold here after PubChem BioAssay AID1347132.

Turning to `CC(C)(C)c1cc(/C=C(\C#N)C(N)=S)cc(C(C)(C)C)c1O`, the result was inactive. Further, the outcome (listed dose 0.1 µM) was inactive. In addition, under “listed dose 0.3 µM”, the outcome was inactive. For the setting “listed dose 1 µM”, the outcome was inactive. Also, under “listed dose 3 µM”, the result was inactive. In addition, where the note is “listed dose 10 µM”, the outcome was active.
